# Data from patent US9931444B2, “Polymeric composite materials with antimicrobial and biodegradable properties and uses thereof” (FONDAZIONE ISTITUTO ITALIANO DI TECNOLOGIA, priority 2012, dated 2018).
# How the values were obtained:
# E. Coli = test: Minimum bactericidal concentration of iodopovidone; format: cell-based
# C. albicans = test: Minimum fungicidal concentration of iodopovidone; format: cell-based
substance,measurement,setting,value
iodopovidone,minimum bactericidal concentration,E. Coli,2000 µM
same,minimum fungicidal concentration,C. albicans,1000 µM
